{"source": "patent EP4792822A1", "about": "“USE OF PEPTIDE AMIDE COMPOUND IN PREPARATION OF DRUG FOR […] AND VOMITING” (Haisco Pharmaceutical Group Co., Ltd., priority 2023, dated 2025)", "test_system": "subjects undergoing elective laparoscopic abdominal or gynaecological surgery under general anaesthesia", "assay": "Example 3: placebo-controlled dose study of compound 1 injection for the prevention of postoperation nausea and vomiting", "format": "in vivo, patients", "settings": "for Complete response (CR) within 24 h after surgery: single intravenous bolus; for Significant nausea within 24 h after surgery: VAS score ≥ 4 cm; for subject satisfaction scores for PONV / time to the first occurrence of emesis (vomiting or retching) or administration of rescue treatment within 24 h after surgery: mean ± standard deviation", "procedure": "Study period: Treatment duration: 24 h after surgery; Follow-up duration: 48 h after surgery\nProtocol: This study was a multicentre, randomised, double-blind, placebo-controlled study. About 200 subjects undergoing elective laparoscopic abdominal or gynaecological surgery under general anaesthesia were planned to be enrolled and randomised at a 1 : 1 : 1 : 1 ratio into the compound 1-60 µg group (50 subjects), the compound 1-120 µg group (50 subjects), the compound 1-180 µg group (50 subjects), and the placebo group (50 subjects).\nA single dose of the study drug was administered within 15 min before the end of surgery. The dosing regimen is as follows: Compound 1-60 µg group: A single dose of 60 µg of compound 1 injection was administered within 15 min before the end of surgery, via intravenous bolus injection, with an intravenous bolus injection time of not less than 30 s.\nCompound 1-120 µg group: A single dose of 120 µg of compound 1 injection was administered within 15 min before the end of surgery, via intravenous bolus injection, with an intravenous bolus injection time of not less than 30 s.\nCompound 1-180 µg group: A single dose of 180 µg of compound 1 injection was administered within 15 min before the end of surgery, via intravenous bolus injection, with an intravenous bolus injection time of not less than 30 s.\nPlacebo group: A single dose of placebo was administered within 15 min before the end of surgery, via intravenous bolus injection, with an intravenous bolus injection time of not less than 30 s.\nPrimary efficacy endpoint: Complete response (CR) rate at 24 h after surgery (CR is defined as no vomiting or retching and no use of rescue medication within 24 h after surgery).\nSecondary efficacy endpoints: Proportion of subjects experiencing nausea after surgery; proportion of subjects experiencing significant nausea after surgery (significant nausea is defined as a VAS score ≥ 4 cm); proportion of subjects experiencing vomiting after surgery (vomiting [even with expulsion of a minimal amount of gastric contents] or retching [muscular movement of vomiting without expulsion of gastric contents]); proportion of subjects using rescue medication after surgery; time to the first occurrence of emesis (vomiting or retching) or administration of rescue treatment within 24 h after surgery, whichever occurs first; cumulative dosage of analgesic agents within 24 h after surgery; and subject and investigator satisfaction scores for PONV.\nSafety endpoints: Incidence and severity of adverse events; and vital signs, 12-lead ECG, physical examination, and laboratory examinations.\nSubjects who met all inclusion criteria and none of the exclusion criteria received a single dose of compound 1 injection or placebo within 15 min before the end of surgery (defined as the completion of the last suture of the wound).\nThe use of any antiemetic agents or agents with antiemetic effects, other than the study drug and rescue medications specified in the protocol, was prohibited from 24 h before the start of surgery (defined as the start of skin incision) to 24 h after the end of surgery. Prophylactic antiemetic treatment was prohibited.\nWithin 24 h after the end of surgery, if the subject experienced ≥ 1 episode of vomiting, retching, or nausea and complained of requiring antiemetic treatment, the subject received rescue antiemetic agents specified in the protocol after assessment by the investigator (tropisetron was the preferred rescue antiemetic agent; it was recommended that an initial intravenous dose of 2.5 mg be administered, followed by additional doses as needed, not to exceed 10 mg within 24 h). If tropisetron was insufficiently effective, other agents were used by the investigator in accordance with routine clinical practice.\nWithin 30 min after the end of surgery, a PCA pump containing morphine hydrochloride injection was initiated. Subjects self-administered analgesia by pressing the PCA pump when experiencing pain. […]", "key": {"[1]": {"settings": "Example 3, compared with placebo"}}, "data": [{"smiles": "CC(=O)N1CC2(CCN(C(=O)[C@@H](CCCCN)NC(=O)[C@@H](CC(C)C)NC(=O)[C@@H](Cc3ccccc3)NC(=O)[C@H](N)Cc3ccccc3)CC2)C1", "note": "[Compound 1, (2R)-N-[(1R)-1-(2-acetyl-2,7-diazaspiro[3.5]nonane-7-carbonyl)-5-amino-pentyl]-2-[[(2R)-2-[[(2R)-2-amino-3-phenyl-propionyl]amino]-3-phenylpropionyl]amino]-4-methyl-pentanamide]", "values": [{"measurement": "investigator satisfaction scores for PONV", "setting": "60 µg group", "result": "8.9 ± 1.84"}, {"measurement": "Nausea within 24 h after surgery", "setting": "60 µg group (N = 49)", "result": "18 (36.7) n (%)"}, {"measurement": "Use of rescue medication within 24 h after surgery", "setting": "60 µg group (N = 49)", "result": "7 (14.3) n (%)"}, {"measurement": "Vomiting within 24 h after surgery", "setting": "60 µg group (N = 49)", "result": "12 (24.5) n (%)"}, {"measurement": "Complete response (CR) within 24 h after surgery", "setting": "60 µg group (N = 49)", "result": "36 (73.5) n (%)"}, {"measurement": "Significant nausea within 24 h after surgery", "setting": "60 µg group (N = 49)", "result": "9 (18.4) n (%)"}, {"measurement": "subject satisfaction scores for PONV", "setting": "60 µg group", "result": "9.0 ± 1.89"}, {"measurement": "time to the first occurrence of emesis (vomiting or retching) or administration of rescue treatment within 24 h after surgery", "setting": "60 µg group", "result": "18.3109 ± 9.6700", "unit": "h"}, {"measurement": "CR rate at 24 h after surgery, comparison among dose groups", "setting": "120 µg group", "result": "highest CR rate"}, {"measurement": "investigator satisfaction scores for PONV", "setting": "120 µg group", "result": "8.9 ± 1.71"}, {"measurement": "Nausea within 24 h after surgery", "setting": "120 µg group (N = 49)", "result": "11 (22.4) n (%)"}, {"measurement": "Use of rescue medication within 24 h after surgery", "setting": "120 µg group (N = 49)", "result": "6 (12.2) n (%)"}, {"measurement": "Vomiting within 24 h after surgery", "setting": "120 µg group (N = 49)", "result": "8 (16.3) n (%)"}, {"measurement": "Complete response (CR) within 24 h after surgery", "setting": "120 µg group (N = 49)", "result": "40 (81.6) n (%)"}, {"measurement": "Significant nausea within 24 h after surgery", "setting": "120 µg group (N = 49)", "result": "7 (14.3) n (%)"}, {"measurement": "subject satisfaction scores for PONV", "setting": "120 µg group", "result": "9.1 ± 1.52"}, {"measurement": "time to the first occurrence of emesis (vomiting or retching) or administration of rescue treatment within 24 h after surgery", "setting": "120 µg group", "result": "20.1119 ± 8.4192", "unit": "h"}, {"measurement": "investigator satisfaction scores for PONV", "setting": "180 µg group", "result": "9.0 ± 1.39"}, {"measurement": "Nausea within 24 h after surgery", "setting": "180 µg group (N = 50)", "result": "16 (32.0) n (%)"}, {"measurement": "Use of rescue medication within 24 h after surgery", "setting": "180 µg group (N = 50)", "result": "8 (16.0) n (%)"}, {"measurement": "Vomiting within 24 h after surgery", "setting": "180 µg group (N = 50)", "result": "9 (18.0) n (%)"}, {"measurement": "Complete response (CR) within 24 h after surgery", "setting": "180 µg group (N = 50)", "result": "39 (78.0) n (%)"}, {"measurement": "Significant nausea within 24 h after surgery", "setting": "180 µg group (N = 50)", "result": "11 (22.0) n (%)"}, {"measurement": "subject satisfaction scores for PONV", "setting": "180 µg group", "result": "9.0 ± 1.65"}, {"measurement": "time to the first occurrence of emesis (vomiting or retching) or administration of rescue treatment within 24 h after surgery", "setting": "180 µg group", "result": "19.7203 ± 8.7225", "unit": "h"}, {"measurement": "TEAEs leading to study withdrawal or death", "setting": "Example 3", "result": "no TEAEs leading to study withdrawal or death were observed"}, {"measurement": "TESAEs (treatment-emergent serious adverse events)", "setting": "Example 3", "result": "No TESAEs (treatment-emergent serious adverse events) occurred"}, {"measurement": "overall safety", "setting": "Example 3", "result": "good overall safety"}, {"measurement": "severity of TEAEs and ADRs", "setting": "Example 3, all TEAEs and ADRs", "result": "Grade 1-2"}, {"measurement": "incidence of ADRs", "setting": "[1]", "result": "slightly higher than that in the placebo group"}, {"measurement": "overall incidence of TEAEs", "setting": "[1]", "result": "lower than that in the placebo group"}, {"measurement": "proportion of subjects experiencing nausea, severe nausea, vomiting, and using rescue medication within 24 h after surgery, compared with placebo", "setting": "each dose group", "result": "lower than that in the placebo group"}, {"measurement": "complete response (CR) rate at 24 h after surgery, compared with placebo", "setting": "each dose group (60, 120, 180 µg), P < 0.05", "result": "higher than that in the placebo group"}, {"measurement": "PONV satisfaction scores of investigators, compared with placebo", "setting": "each dose group, P < 0.05", "result": "higher than those in the placebo group"}, {"measurement": "PONV satisfaction scores of subjects, compared with placebo", "setting": "each dose group, P < 0.05", "result": "higher than those in the placebo group"}, {"measurement": "time to the first occurrence of emesis (vomiting or retching) or administration of rescue treatment within 24 h after surgery, compared with placebo", "setting": "each dose group, P < 0.05", "result": "later than that in the placebo group"}]}]}
